Here are results for 3 compounds from patent US8383666B2, “Pyrrole derivatives, preparation of same and therapeutic application thereof” (Sanofi, priority 2008, dated 2013).

Molecules are shown by their SMILES.

The target in data set [1] is T1, CB1 receptors present in the brain (Mus musculus, UniProt P47746). In words: Measurement (2): ex vivo binding of [3H]-CP55940 in the brain after intravenous administration. The following applies: iv at 10 mg/kg, mice, read-out: % inhibition of [3H]-CP55940 binding at the level of the brain. Also on record: the CB1 receptors present in the brain in mice; from tissue; host or cells: mouse brain (after intravenous dosing). The text has this:
(§1) Preferably, this percentage is less than 40%, and more preferably less than 30%.

The target of data set [2] is T2, CB1 receptors present at the periphery (Mus musculus, UniProt P47746).
T2 construct: from tissue; host or cells: living mouse, peripheral (gastrointestinal) CB1 receptors
T2 sequence (P47746 whole entry): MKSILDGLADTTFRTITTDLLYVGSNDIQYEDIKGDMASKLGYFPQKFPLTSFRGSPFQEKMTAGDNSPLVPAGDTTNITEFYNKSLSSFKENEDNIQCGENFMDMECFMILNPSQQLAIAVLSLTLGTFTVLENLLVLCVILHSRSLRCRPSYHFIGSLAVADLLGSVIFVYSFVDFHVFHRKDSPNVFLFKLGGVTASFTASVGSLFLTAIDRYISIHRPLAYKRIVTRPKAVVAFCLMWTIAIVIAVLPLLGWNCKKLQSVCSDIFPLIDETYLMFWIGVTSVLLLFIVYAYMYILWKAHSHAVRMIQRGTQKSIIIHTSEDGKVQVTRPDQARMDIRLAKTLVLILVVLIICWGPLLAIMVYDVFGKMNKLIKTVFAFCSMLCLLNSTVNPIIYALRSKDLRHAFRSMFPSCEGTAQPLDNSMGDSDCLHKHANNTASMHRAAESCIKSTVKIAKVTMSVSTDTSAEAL
In words: blocking of the inhibitory effect of CP55940 on gastrointestinal transit. The class given is in vivo. As to conditions: per os at 10 mg/kg, mice.

Data set [3] addresses T1, CB1 receptors present in the brain. Kind of data set: Measurement (3): blocking of the hypothermic effect induced by CP55940. The class given is in vivo. Also on record: [CB1 receptors present; from tissue; host or cells: living animal, brain CB1 receptors. As to conditions: iv at 10 mg/kg.
Text: as §1

Data set [4] in a line: Measurement (1): quantification of compound in brain and plasma by LC-MS/MS. The class given is in vivo. As to conditions: iv at 3 mg/kg, according to measurement (1), mouse, read-out: Ratio: Amount present in the brain/Amount present in the plasma.
Text: as §1

T1 sequence (P47746 whole entry): as above

Turning to `Cn1c(C(=O)N2CCC(NCc3ccc(F)cc3)(C(N)=O)CC2)cc(-c2ccccc2Cl)c1-c1ccc(OCCCO)cc1` [Compound 24, 1-[4-(2-chlorophenyl)-5-[4-(3-hydroxypropoxy)phenyl]-1-methyl-1H-pyrrole-2-carbonyl]-4-(4-fluorobenzylamino)piperidine-4-carboxamide], in data set [1], the inhibition – broadly, the share of the control response that was lost under treatment – at 10 mg/kg is 1%. The “% reversion of the effect of CP55940 on GI transit” value in data set [2] is listed as 100%. In addition, the “% reversion of the hypothermic effect of CP55940” value in data set [3] amounted to 20%.

Consider `Cn1c(C(=O)N2CCC(NCc3cccc(F)c3)(C(N)=O)CC2)cc(-c2ccc(Cl)cc2Cl)c1-c1ccc(OCCCO)cc1` [Compound 11, 1-[4-(2,4-dichlorophenyl)-5-[4-(3-hydroxypropoxy)phenyl]-1-methyl-1H-pyrrole-2-carbonyl]-4-(3-fluorobenzylamino)piperidine-4-carboxamide], for which the inhibition at 10 mg/kg in data set [1] was determined as 25%. In addition, the “% reversion of the hypothermic effect of CP55940” value in data set [3] is on record as 64%.

On to `Cn1c(C(=O)N2CCC(C(N)=O)(c3ccccc3)CC2)cc(-c2ccc(Cl)cc2Cl)c1-c1ccc(OCC(N)=O)cc1` [Compound 16, 1-[5-(4-carbamoylmethoxy)phenyl-4-(2,4-dichlorophenyl)-1-methyl-1H-pyrrole-2-carbonyl]-4-phenylpiperidine-4-carboxamide], for which the inhibition at 10 mg/kg in data set [1] worked out at 8%. In addition, the “% reversion of the effect of CP55940 on GI transit” value in data set [2] is on record as 76%. Also, the Kp in data set [4] amounted to 0.05. Moreover, the “% reversion of the hypothermic effect of CP55940” value in data set [3] worked out at 3%.
